Laboratory results reported in patent publication US8173672B2, “Quinolizidinone M1 receptor positive allosteric modulators” (Merck Sharp & Dohme Corp., priority 2008, dated 2012).

Biological target: T1, acetylcholine muscarinic M1 receptor (Homo sapiens, UniProt P11229)
T1 construct: expressed in transfected cells; host or cells: CHOnfat (CHO cells; also called CHOK1/hM1), selected with Geneticin
T1 sequence (P11229 1-460): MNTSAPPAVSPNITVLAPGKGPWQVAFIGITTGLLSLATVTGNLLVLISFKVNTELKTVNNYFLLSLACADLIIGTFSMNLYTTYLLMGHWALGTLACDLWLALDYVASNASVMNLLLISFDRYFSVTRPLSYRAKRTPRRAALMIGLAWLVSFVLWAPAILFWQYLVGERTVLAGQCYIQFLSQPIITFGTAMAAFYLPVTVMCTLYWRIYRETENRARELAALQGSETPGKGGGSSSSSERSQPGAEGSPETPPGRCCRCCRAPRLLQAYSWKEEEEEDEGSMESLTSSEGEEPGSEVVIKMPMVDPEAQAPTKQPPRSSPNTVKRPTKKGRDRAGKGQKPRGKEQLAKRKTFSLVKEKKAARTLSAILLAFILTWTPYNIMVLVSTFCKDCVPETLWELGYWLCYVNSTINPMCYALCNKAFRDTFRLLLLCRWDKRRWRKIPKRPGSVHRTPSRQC
Assay: muscarinic FLIPR assay: potentiation of acetylcholine (EC20)-stimulated intracellular calcium in CHOnfat/hM1 cells
Assay type: cell-based
Conditions: 4 min preincubation, then EC20 acetylcholine (3 nM final), read-out: IP Value (inflection point)
Experimental: The assay studies the effect of one or several concentrations of test compounds on basal or acetylcholine-stimulated Ca^2+ levels using FLIPR.
Compounds are prepared and subjected to a preincubation period of 4 min. Thereafter, a single EC20 concentration of acetylcholine is added to each well (3 nM final). The intracellular Ca^2+ level of each sample is measured and compared to an acetylcholine control to determine any modulatory activity.
Cells: CHOnfat/hM1, hM2, hM3 or hM4 cells are plated 24 hr before the assay at a density of 18,000 cells/well (100 μL) in a 384 well plate. CHOnfat/hM1 and CHOnfat/hM3 Growth Medium: 90% DMEM (Hi Glucose); 10% HI FBS; 2 mM L-glutamine; 0.1 mM NEAA; Pen-Strep; and 1 mg/ml Geneticin, are added. For M2Gqi5CHOnfat and M4Gqi5CHOnfat cells, an additional 600 μg/ml hygromycin is added.
Equipment: 384 well plate, 120 μL addition plate; 96-well Whatman 2 ml Uniplate Incubator, 37° C., 5% CO2; Skatron EMBLA-384 Plate Washer; Multimek Pipetting System; Genesis Freedom 200 System; Mosquito System; Temo Nanolitre Pipetting System; and FLIPR^384 Fluorometric Imaging Plate Reader System are used.
Buffers. Assay Buffer: Hanks Balanced Salt Solution, with 20 mM Hepes, 2.5 mM Probenecid (Sigma P-8761) first dissolved in 1N aqueous NaOH, 1% Bovine Serum Albumin (Sigma A-9647). Dye Loading Buffer: Assay Buffer plus 1% Fetal Bovine Serum and Fluo-4AM/Pluronic Acid Mixture. 2 mM Fluo-4AM ester stock in DMSO (Molecular Probes F-14202) Concentration of 2 μM in buffer for a final concentration of 1 μM in Assay. 20% Pluronic Acid Solution stock, with a concentration of 0.04% in Buffer, 0.02% in Assay.
65 μl of 2 mM Fluo-4AM are mixed with 130 μL of 20% Pluronic Acid. The resulting solution and 650 μL FBS is added to the assay buffer for a total volume of 65 mL. Positive Controls: 4-Br-A23187: 10 mM in DMSO; final concentration 10 μM. Acetylcholine: 10 mM in water, working stock at both 20 μM and 30 μM in assay buffer, final concentration of 10 μM. This is used to check the maximum stimulation of the CHOK1/hM1 cells. 20 μM (2×) acetylcholine is added in the preincubation part of the assay, and the 30 μM (3×) stock is added in the second part. (EC20) Acetylcholine: 10 mM in water, working stock of 9 nM (3×), and final concentration in assay is 3 nM. This is used after the preincubation with test compounds. Addition of the EC20 Acetylcholine to each well with a test compound will ascertain any modulator activity. 24 wells contain 3 nM Acetylcholine alone as a control.
Determining Activity of Putative Compounds:
Screening Plate: Compounds are titrated in 96-well plates (columns 2-11), 100% DMSO, started at a concentration of 15 mM (150× stock concentration), and 3-fold serial dilutions using Genesis Freedom200 System. Four 96-well plates are combined into a 384-well plate using Mosquito Nanolitre Pipetting System by transferring 1 μl of serial diluted compounds to each well, and 1 mM acetylcholine (100× stock concentration) were added as a control. Using Temo, 49 μl assay buffer is added to each well of the 384-well plate right before assay.
In a 96-well Whatman 2 ml Uniplate, 9 nM Acetylcholine (3×) is pipetted into wells corresponding to the screening compounds and into control wells. The 30 μM acetylcholine control (3×) is added into control wells and the 3× agonist plate is transferred into a 384-well plate.
Cells are washed three times with 100 μL of buffer, leaving 30 μL of buffer in each well. Using Multimek, 30 μL of Dye Loading Buffer is added into each well and incubated at 37° C., 5% CO2 for up to one hr.
After 60 min, the cells are washed three times with 100 μL of buffer, leaving 30 μL of buffer in each well. The cell plate, screening plate, and agonist addition plates are placed on the platform in the FLIPR and the door is closed. A signal test to check background fluorescence and basal fluorescence signal is performed. Laser intensity is adjusted if necessary. […]

O=C(O)c1cc(CN2CCc3cnccc3C2)c2ccccn2c1=O [Example 54]
EC50: 900 nM

O=C(O)c1cc(CN2CCc3ccccc3C2c2ccccc2F)c2ccccn2c1=O (centres unmarked) [Example 18]
EC50: 150 nM

CCOC(=O)C1c2ccccc2CCN1Cc1cc(C(=O)O)c(=O)n2ccccc12 (centres unmarked) [Example 11]
EC50: 286 nM

O=C(O)c1cc(CN2CCc3ccccc3C2c2ccncc2)c2ccccn2c1=O (centres unmarked) [Example 17]
EC50: 84 nM

O=C(O)c1cc(CN2CCc3cc(Cl)ccc3C2)c2ccccn2c1=O [Example 1, 1-[(6-chloro-3,4-dihydroisoquinolin-2(1H)-yl)methyl]-4-oxo-4H-quinolizine-3-carboxylic acid]
EC50: 510 nM

O=C(O)c1cc(CN2CCn3c(-c4ccccc4)cnc3C2)c2ccccn2c1=O [Example 69]
EC50: 4180 nM

O=C(O)c1cc(CN2Cc3ccccc3C[C@@H]2CO)c2ccccn2c1=O [Example 7]
EC50: 8980 nM

O=C(O)c1cc(CN2CCc3cc(-c4ccccc4)ccc3C2)c2ccccn2c1=O [Example 87, 4-Oxo-1-[(6-phenyl-3,4-dihydroisoquinolin-2(1H)-yl)methyl]-4H-quinolizine-3-carboxylic acid]
EC50: 6200 nM

O=C(O)c1cc(CN2CCc3ccccc3C2)c2ccccn2c1=O [Example 6]
EC50: 1720 nM

Cc1ccc2c(c1)CCN(Cc1cc(C(=O)O)c(=O)n3ccccc13)C2 [Example 89, 1-[(6-methyl-3,4-dihydroisoquinolin-2(1H)-yl)methyl]-4-oxo-4H-quinolizine-3-carboxylic acid]
EC50: 6700 nM

N#Cc1ccc2c(c1)CCN(Cc1cc(C(=O)O)c(=O)n3ccccc13)C2 [Example 88, 1-[(6-cyano-3,4-dihydroisoquinolin-2(1H)-yl)methyl]-4-oxo-4H-quinolizine-3-carboxylic acid]
EC50: 12000 nM
